These are literature values, as cited in patent publication US20030083360A1, “Compaction process for manufacture of sodium phenytoin dosage form” (priority 2001, published 2003).

Read-outs that look alike come from different tables or passages of the source.

`O=C1N=C([O-])NC1(c1ccccc1)c1ccccc1.[Na+]` [sodium phenytoin]: the solubility in water result is “much more soluble”. `O=C1NC(=O)C(c2ccccc2)(c2ccccc2)N1` [phenytoin, 5,5-diphenyl-2,4-imidazolidinedione]: the solubility in water entry was “poor solubility in water”. In addition, the solubility in water result (listed as free-phenytoin) was “practically insoluble in water”.
